Source: patent publication US8617879B2, “Apparatus for cell or tissue culture” (Agency for Science, Technology and Research, priority 2009, dated 2013)

Tested on: C3A cells
Assay: APAP-induced hepatotoxicity IC50 measurement with robotic liquid handler
Type: cell-based
Conditions: Homo sapiens
Description: Using the human liver cancer cell line C3A, cultured in the bioreactor, IC50 value measurements were conducted with a robotic liquid handler (FIG. 16).

In the case of CC(=O)Nc1ccc(O)cc1 [APAP, acetaminophen], the IC50 (C3A cells cultured in Si3N4—SC (static)) is reported as 80 mM, the IC50 (C3A cells cultured in Si3N4—SCP (Si3N4 sandwich perfusion in 96-well bioreactor)) is reported as 71 mM and the IC50 (C3A cells cultured in collagen gel sandwich (static)) is reported as 84.6 mM.
